# Source: PMC5885780, “Sub-nanosecond tryptophan radical deprotonation mediated by a protein-bound water cluster in class II DNA photolyases” (Chemical Science, 2017)
# Key:
# Assay in all cases: UV/vis and transient absorption of co-purified protein-bound FAD
# Format in all cases: binding
# Settings in all cases: pH 8.0, 10 mM Tris-HCl, 100 mM NaCl, 10% glycerol, 7 °C; oxidized FAD; free FAD removed by size-exclusion column
# [1] = target: T1, MmCPDII (class II CPD photolyase) (Methanosarcina mazei, UniProt Q8PYK9, W388F)
# T1 construct: gene MM_0852; full-length from pET-28a-MmCPDII, E. coli BL21-Gold(DE3), NiNTA and SEC
# [2] = target: T2, MmCPDII (class II CPD photolyase) (Methanosarcina mazei, UniProt Q8PYK9, Y345F)
# T2 construct: gene MM_0852; full-length from pET-28a-MmCPDII, E. coli BL21-Gold(DE3), NiNTA and SEC
# [3] = target: T3, MmCPDII (class II CPD photolyase) (Methanosarcina mazei, UniProt Q8PYK9)
# T3 construct: gene MM_0852; full-length from pET-28a-MmCPDII, E. coli BL21-Gold(DE3), NiNTA and SEC
# [4] = target: T4, MmCPDII (class II CPD photolyase) (Methanosarcina mazei, UniProt Q8PYK9, E387Q)
# T4 construct: gene MM_0852; full-length from pET-28a-MmCPDII, E. coli BL21-Gold(DE3), NiNTA and SEC
smiles,measurement,setting,value
Cc1cc2nc3c(=O)[nH]c(=O)nc-3n(C[C@H](O)[C@H](O)[C@H](O)COP(=O)(O)OP(=O)(O)OC[C@H]3O[C@@H](n4cnc5c(N)ncnc54)[C@H](O)[C@@H]3O)c2cc1C [FAD],UV/vis and transient absorption of co-purified protein-bound FAD,[1],"Isolated MmCPDII photolyase (WT, as well as all mutants studied here) contains a fully oxidized FAD"
same,UV/vis and transient absorption of co-purified protein-bound FAD,[2],"Isolated MmCPDII photolyase (WT, as well as all mutants studied here) contains a fully oxidized FAD"
same,UV/vis and transient absorption of co-purified protein-bound FAD,[3],"Isolated MmCPDII photolyase (WT, as well as all mutants studied here) contains a fully oxidized FAD"
same,UV/vis and transient absorption of co-purified protein-bound FAD,[4],"Isolated MmCPDII photolyase (WT, as well as all mutants studied here) contains a fully oxidized FAD"
